Measured values from US20040116513A1, “Method to alter the isomeric profile of trans fatty acid in ruminant meat and milk and to increase the concentration of $I(cis)-11 conjugated linoleic acid” (priority 2000, published 2004).

What was measured:
[1] = test system: multiparous Holstein cows; test: Animal study of dietary addition of vitamin E to an oilseed diet: milk production and milk fatty acid profile; type: in vivo, cow; conditions: result in words
Description: The effect of Vitamin E addition in the diet on milk fat depression as well as on the biohydrogenation shift from trans-11 to trans-10 fatty acids classically observed upon feeding of high doses of unsaturated fatty acids, was tested in vivo with six multiparous Holstein cows that yielded more than 25 kg milk/d.
A Latin square experimental design consisting of three groups of two cows, three periods of four weeks and three diets (control, oilseed and oilseed+tocopheryl-acetate) was followed. For all groups, the mixed basal diet consisted, in dry matter terms, of 30% grass silage, 46% corn silage, 13% dried sugar beet pulp, 10% soybean meal and 1% mineral & vitamin mixture. The oilseed concentrate consisted of 50% barley, 25% rapeseed and 25% linseed, whereas its control counterpart was made of 50% barley, 25% rapeseed meal and 25% linseed meal.
The amounts of oilseeds concentrate offered were calculated to provide approximately 550 g/d of supplemental lipids. In addition, cows fed oilseed diet plus Vitamin E received 9600 IU of the vitamin per day, together with the oilseed concentrate.
Milk weights were automatically recorded daily at each milking. Milk samples were taken during the last week of each period and analysed for crude protein, fat and fatty acid profile. Quantification of the trans-C18:1 and CLA isomers was performed by gas chromatography as described in Griinari et al. (1998).

lactating dairy cow = test: Vitamin E tolerated dose extrapolated to lactating dairy cow; type: in vivo; conditions: 500 kg lactating dairy cow, extrapolated from chicks
Description: Vitamin E has a toxic effect only at very high dosages. In growing chicks, daily intake of 1000 IU/kg of body weight is without negative effects. Corresponding dietary dose in a 500 kg lactating dairy cow would be 500 000 IU/d which far exceeds the effective dose range in this invention as described before.

growing chicks = conditions: cited from earlier work

SMILES: CC(=O)Oc1c(C)c(C)c2c(c1C)CCC(C)(CCC[C@H](C)CCC[C@H](C)CCCC(C)C)O2 (mixture of isomers) [vitamin E, all-rac-α-tocopheryl acetate]
- CLA content (cis-9, trans-11 C18:2) of milk fat [1]: increased CLA content dramatically
- level of trans-10 C18:1 in milk fat [1]: decreased to control levels
- level of trans-11 C18:1 in milk fat [1]: increased significantly
- levels of C4:0 to C16:0 saturated fatty acids in milk [1]: no major impact
- levels of stearic acid (C18:0) in milk [1]: no major impact
- milk fat yield [1]: complete recovery
- shift in the ruminal biohydrogenation process (trans-11 to trans-10) [1]: completely abolished
- total monounsaturated C18 (C18:1) fatty acids in milk [1]: no major impact
- corresponding dietary dose without negative effects (lactating dairy cow): 500 000 IU/d
- daily intake without negative effects (growing chicks): 1000 IU/kg of body weight
